Experiments:
Assay type in all cases: in vivo
[1] = test system: SETVI: Setaria viridis; assay: Pre-emergence herbicidal effect; details: application rate 320 g/ha, scored visually after 3 weeks, 100% = plants have died, 0% = like control plants
From the text: (§1) 1. Pre-Emergence Herbicidal Effect and Crop Plant Compatibility Seeds of monocotyledonous and dicotyledonous weed plants and crop plants are laid out in sandy loam soil in wood-fiber pots and covered with soil. The compounds of the invention, formulated in the form of wettable powders (WP) or as emulsion concentrates (EC), are then applied to the surface of the covering soil as aqueous suspension or emulsion at a water application rate equating to 600 to 800 L/ha with addition of 0.2% wetting agent. After the treatment, the pots are placed in a greenhouse and kept under good growth conditions for the trial plants. The damage to the test plants is scored visually after a test period of 3 weeks by comparison with untreated controls (herbicidal activity in percent (%): 100% activity=the plants have died, 0% activity=like control plants). [table]

[2] = test system: ECHCG: Echinochloa crus-galli; assay: Pre-emergence herbicidal effect; details: application rate 320 g/ha, scored visually after 3 weeks, 100% = plants have died, 0% = like control plants
From the text: as §1

[3] = test system: VERPE: Veronica persica; assay: Pre-emergence herbicidal effect; details: application rate 320 g/ha, scored visually after 3 weeks, 100% = plants have died, 0% = like control plants
From the text: as §1

[4] = test system: LOLMU: Lolium multiflorum; assay: Pre-emergence herbicidal effect; details: application rate 320 g/ha, scored visually after 3 weeks, 100% = plants have died, 0% = like control plants
From the text: as §1

[5] = test system: POLCO: Polygonum convolvulus; assay: Pre-emergence herbicidal effect; details: application rate 320 g/ha, scored visually after 3 weeks, 100% = plants have died, 0% = like control plants
From the text: as §1

[6] = test system: ALOMY: Alopecurus myosuroides; assay: Pre-emergence herbicidal effect; details: application rate 320 g/ha, scored visually after 3 weeks, 100% = plants have died, 0% = like control plants
From the text: as §1

[7] = test system: ABUTH: Abutilon theophrasti; assay: Pre-emergence herbicidal effect; details: application rate 320 g/ha, scored visually after 3 weeks, 100% = plants have died, 0% = like control plants
From the text: as §1

[8] = test system: MATIN: Matricaria inodora; assay: Pre-emergence herbicidal effect; details: application rate 320 g/ha, scored visually after 3 weeks, 100% = plants have died, 0% = like control plants
From the text: as §1

[9] = test system: STEME: Stellaria media; assay: Pre-emergence herbicidal effect; details: application rate 320 g/ha, scored visually after 3 weeks, 100% = plants have died, 0% = like control plants
From the text: as §1

[10] = test system: VIOTR: Viola tricolor; assay: Post-emergence herbicidal effect; details: application rate 320 g/ha, treated at one-leaf stage, assessed visually after about 3 weeks, 100% = plants have died
Method: (§2) [table] 2. Post-Emergence Herbicidal Effect and Crop Plant Compatibility Seeds of monocotyledonous and dicotyledonous weed and crop plants are laid out in sandy loam soil in wood-fiber pots, covered with soil and cultivated in a greenhouse under good growth conditions. 2 to 3 weeks after sowing, the test plants are treated at the one-leaf stage. The compounds of the invention, formulated in the form of wettable powders (WP) or as emulsion concentrates (EC), are then sprayed onto the green parts of the plants as aqueous suspension or emulsion at a water application rate equating to 600 to 800 L/ha with addition of 0.2% wetting agent. After the test plants have been left to stand in the greenhouse under optimal growth conditions for about 3 weeks, the action of the preparations is assessed visually in comparison to untreated controls (herbicidal action in percent (%): 100% activity=the plants have died, 0% activity=like control plants).

[11] = test system: ECHCG: Echinochloa crus-galli; assay: Post-emergence herbicidal effect; details: application rate 320 g/ha, treated at one-leaf stage, assessed visually after about 3 weeks, 100% = plants have died
Method: as §2

[12] = test system: VERPE: Veronica persica; assay: Post-emergence herbicidal effect; details: application rate 320 g/ha, treated at one-leaf stage, assessed visually after about 3 weeks, 100% = plants have died
Method: as §2

[13] = test system: AMARE: Amaranthus retroflexus; assay: Post-emergence herbicidal effect; details: application rate 320 g/ha, treated at one-leaf stage, assessed visually after about 3 weeks, 100% = plants have died
Method: as §2

[14] = test system: ALOMY: Alopecurus myosuroides; assay: Post-emergence herbicidal effect; details: application rate 320 g/ha, treated at one-leaf stage, assessed visually after about 3 weeks, 100% = plants have died
Method: as §2

[15] = test system: STEME: Stellaria media; assay: Post-emergence herbicidal effect; details: application rate 320 g/ha, treated at one-leaf stage, assessed visually after about 3 weeks, 100% = plants have died
Method: as §2

Cc1ccc2c(c1)[C@H](Nc1nnc(S(C)(=O)=O)c(N)n1)CC2 [Example 1.73]
100%: Herbicidal activity with respect to [%] SETVI [1] | Herbicidal activity with respect to [%] ECHCG [2] | Herbicidal activity with respect to [%] VERPE [3] | Herbicidal activity with respect to [%] LOLMU [4] | Herbicidal activity with respect to [%] POLCO [5] | Herbicidal activity with respect to [%] ALOMY [6] | Herbicidal activity with respect to [%] ABUTH [7] | Herbicidal activity with respect to [%] MATIN [8] | Herbicidal activity with respect to [%] STEME [9] | Herbicidal activity with respect to [%] ECHCG [11] | Herbicidal activity with respect to [%] VERPE [12] | Herbicidal activity with respect to [%] AMARE [13] | Herbicidal activity with respect to [%] ALOMY [14] | Herbicidal activity with respect to [%] STEME [15]
90%: Herbicidal activity with respect to [%] VIOTR [10]

Nc1nc(NC2CCOc3ccc(F)cc32)nnc1C(F)(F)F (racemic) [Example 1.49]
80%: Herbicidal activity with respect to [%] ECHCG [11] | Herbicidal activity with respect to [%] AMARE [13] | Herbicidal activity with respect to [%] ALOMY [14]
100%: Herbicidal activity with respect to [%] SETVI [1] | Herbicidal activity with respect to [%] ECHCG [2] | Herbicidal activity with respect to [%] VERPE [3] | Herbicidal activity with respect to [%] LOLMU [4] | Herbicidal activity with respect to [%] POLCO [5] | Herbicidal activity with respect to [%] ALOMY [6] | Herbicidal activity with respect to [%] MATIN [8] | Herbicidal activity with respect to [%] STEME [9] | Herbicidal activity with respect to [%] VERPE [12]
90%: Herbicidal activity with respect to [%] VIOTR [10] | Herbicidal activity with respect to [%] STEME [15]

Cc1ccc2c(c1)[C@H](Nc1nnc(C(N)=O)c(N)n1)CC2 [Example 1.78]
90%: Herbicidal activity with respect to [%] POLCO [5]
80%: Herbicidal activity with respect to [%] VIOTR [10] | Herbicidal activity with respect to [%] AMARE [13]
100%: Herbicidal activity with respect to [%] SETVI [1] | Herbicidal activity with respect to [%] ECHCG [2] | Herbicidal activity with respect to [%] ALOMY [6] | Herbicidal activity with respect to [%] ABUTH [7] | Herbicidal activity with respect to [%] MATIN [8] | Herbicidal activity with respect to [%] ALOMY [14] | Herbicidal activity with respect to [%] STEME [15]

Nc1nc(NC2CCOc3ccccc32)nnc1C(F)(F)F (stereo not shown) [Example 1.47, N^3-(3,4-Dihydro-2H-chromen-4-yl)-6-(trifluoromethyl)-1,2,4-triazine-3,5-diamine]
100%: Herbicidal activity with respect to [%] SETVI [1] | Herbicidal activity with respect to [%] ECHCG [2] | Herbicidal activity with respect to [%] VERPE [3] | Herbicidal activity with respect to [%] POLCO [5] | Herbicidal activity with respect to [%] MATIN [8] | Herbicidal activity with respect to [%] STEME [9] | Herbicidal activity with respect to [%] VIOTR [10] | Herbicidal activity with respect to [%] ECHCG [11] | Herbicidal activity with respect to [%] VERPE [12] | Herbicidal activity with respect to [%] AMARE [13] | Herbicidal activity with respect to [%] ALOMY [14] | Herbicidal activity with respect to [%] STEME [15]
80%: Herbicidal activity with respect to [%] ALOMY [6]

Cc1ccc2c(c1)[C@H](Nc1nnc(Cl)c(N)n1)[C@@H](C)C2 [Example 1.3, 6-Chloro-N^3-[(1R,2S)-2,6-dimethyl-2,3-dihydro-1H-inden-1-yl]-1,2,4-triazine-3,5-diamine]
90%: Herbicidal activity with respect to [%] ALOMY [14]
80%: Herbicidal activity with respect to [%] ECHCG [11]
100%: Herbicidal activity with respect to [%] SETVI [1] | Herbicidal activity with respect to [%] ECHCG [2] | Herbicidal activity with respect to [%] VERPE [3] | Herbicidal activity with respect to [%] LOLMU [4] | Herbicidal activity with respect to [%] POLCO [5] | Herbicidal activity with respect to [%] ALOMY [6] | Herbicidal activity with respect to [%] ABUTH [7] | Herbicidal activity with respect to [%] MATIN [8] | Herbicidal activity with respect to [%] STEME [9] | Herbicidal activity with respect to [%] VIOTR [10] | Herbicidal activity with respect to [%] VERPE [12] | Herbicidal activity with respect to [%] AMARE [13] | Herbicidal activity with respect to [%] STEME [15]

CC(=O)c1nnc(N[C@H]2c3cc(C)ccc3C[C@@H]2C)nc1N [Example 1.26]
100%: Herbicidal activity with respect to [%] SETVI [1] | Herbicidal activity with respect to [%] ECHCG [2] | Herbicidal activity with respect to [%] VERPE [3] | Herbicidal activity with respect to [%] POLCO [5] | Herbicidal activity with respect to [%] ALOMY [6] | Herbicidal activity with respect to [%] ABUTH [7] | Herbicidal activity with respect to [%] MATIN [8] | Herbicidal activity with respect to [%] STEME [9] | Herbicidal activity with respect to [%] VIOTR [10] | Herbicidal activity with respect to [%] ECHCG [11] | Herbicidal activity with respect to [%] VERPE [12] | Herbicidal activity with respect to [%] STEME [15]
90%: Herbicidal activity with respect to [%] AMARE [13]

CCOC(=O)c1nnc(N[C@H]2c3cc(C)ccc3C[C@@H]2C)nc1N [Example 1.21]
100%: Herbicidal activity with respect to [%] SETVI [1] | Herbicidal activity with respect to [%] ECHCG [2] | Herbicidal activity with respect to [%] POLCO [5] | Herbicidal activity with respect to [%] MATIN [8] | Herbicidal activity with respect to [%] VERPE [12] | Herbicidal activity with respect to [%] STEME [15]
80%: Herbicidal activity with respect to [%] VERPE [3] | Herbicidal activity with respect to [%] VIOTR [10] | Herbicidal activity with respect to [%] ECHCG [11] | Herbicidal activity with respect to [%] ALOMY [14]
90%: Herbicidal activity with respect to [%] ALOMY [6] | Herbicidal activity with respect to [%] AMARE [13]

Nc1nc(N[C@@H]2CCCc3ccccc32)nnc1C(F)(F)F [Example 1.22]
100%: Herbicidal activity with respect to [%] SETVI [1] | Herbicidal activity with respect to [%] ECHCG [2] | Herbicidal activity with respect to [%] VERPE [3] | Herbicidal activity with respect to [%] POLCO [5] | Herbicidal activity with respect to [%] ALOMY [6] | Herbicidal activity with respect to [%] MATIN [8] | Herbicidal activity with respect to [%] STEME [9] | Herbicidal activity with respect to [%] VIOTR [10] | Herbicidal activity with respect to [%] ECHCG [11] | Herbicidal activity with respect to [%] VERPE [12] | Herbicidal activity with respect to [%] AMARE [13] | Herbicidal activity with respect to [%] ALOMY [14] | Herbicidal activity with respect to [%] STEME [15]
90%: Herbicidal activity with respect to [%] ABUTH [7]

Cc1ccc2c(c1)[C@H](Nc1nnc(S(C)(=O)=O)c(N)n1)CCC2 [Example 1.68]
80%: Herbicidal activity with respect to [%] ECHCG [11] | Herbicidal activity with respect to [%] VERPE [12]
100%: Herbicidal activity with respect to [%] SETVI [1] | Herbicidal activity with respect to [%] ECHCG [2] | Herbicidal activity with respect to [%] VERPE [3] | Herbicidal activity with respect to [%] LOLMU [4] | Herbicidal activity with respect to [%] POLCO [5] | Herbicidal activity with respect to [%] ALOMY [6] | Herbicidal activity with respect to [%] ABUTH [7] | Herbicidal activity with respect to [%] MATIN [8] | Herbicidal activity with respect to [%] STEME [9] | Herbicidal activity with respect to [%] ALOMY [14] | Herbicidal activity with respect to [%] STEME [15]
90%: Herbicidal activity with respect to [%] VIOTR [10]

Cc1ccc2c(c1)[C@H](Nc1nnc(S(C)(=O)=O)c(N)n1)[C@@H](C)C2 [Example 1.45]
100%: Herbicidal activity with respect to [%] SETVI [1] | Herbicidal activity with respect to [%] ECHCG [2] | Herbicidal activity with respect to [%] VERPE [3] | Herbicidal activity with respect to [%] LOLMU [4] | Herbicidal activity with respect to [%] POLCO [5] | Herbicidal activity with respect to [%] ALOMY [6] | Herbicidal activity with respect to [%] MATIN [8] | Herbicidal activity with respect to [%] STEME [9] | Herbicidal activity with respect to [%] ECHCG [11]
90%: Herbicidal activity with respect to [%] ABUTH [7] | Herbicidal activity with respect to [%] VIOTR [10] | Herbicidal activity with respect to [%] VERPE [12] | Herbicidal activity with respect to [%] STEME [15]
80%: Herbicidal activity with respect to [%] AMARE [13]

Cc1ccc2c(c1)[C@H](Nc1nnc([S+](C)[O-])c(N)n1)CCC2 (stereo partly shown) [Example 1.69]
90%: Herbicidal activity with respect to [%] LOLMU [4] | Herbicidal activity with respect to [%] ALOMY [6] | Herbicidal activity with respect to [%] AMARE [13] | Herbicidal activity with respect to [%] ALOMY [14]
100%: Herbicidal activity with respect to [%] SETVI [1] | Herbicidal activity with respect to [%] ECHCG [2] | Herbicidal activity with respect to [%] VERPE [3] | Herbicidal activity with respect to [%] POLCO [5] | Herbicidal activity with respect to [%] MATIN [8] | Herbicidal activity with respect to [%] STEME [9] | Herbicidal activity with respect to [%] STEME [15]
80%: Herbicidal activity with respect to [%] VIOTR [10] | Herbicidal activity with respect to [%] ECHCG [11] | Herbicidal activity with respect to [%] VERPE [12]

From patent publication US10743540B2, “3-amino-1,2,4-triazine derivatives and their use for controlling undesired plant growth” (BAYER CROPSCIENCE AKTIENGESELLSCHAFT, priority 2016, dated 2020)
